Test results taken from ChEMBL document CHEMBL5346964, “Discovery of LNP1892: A Precision Calcimimetic for the Treatment of Secondary Hyperparathyroidism” (J Med Chem, 2023).
pEC50: −log10 of the molar value.

What was measured:
[1] = target: T1, Extracellular calcium-sensing receptor (Homo sapiens, UniProt P41180); assay: Agonist activity at human CaSR expresssed in HEK293 cells in presence of glucose by Fluo4NW dye based FLIPR assay; assay type: functional, cell-based; settings: for pEC50: read-out: EC50; for EC50: hek293
T1 sequence (P41180 whole entry): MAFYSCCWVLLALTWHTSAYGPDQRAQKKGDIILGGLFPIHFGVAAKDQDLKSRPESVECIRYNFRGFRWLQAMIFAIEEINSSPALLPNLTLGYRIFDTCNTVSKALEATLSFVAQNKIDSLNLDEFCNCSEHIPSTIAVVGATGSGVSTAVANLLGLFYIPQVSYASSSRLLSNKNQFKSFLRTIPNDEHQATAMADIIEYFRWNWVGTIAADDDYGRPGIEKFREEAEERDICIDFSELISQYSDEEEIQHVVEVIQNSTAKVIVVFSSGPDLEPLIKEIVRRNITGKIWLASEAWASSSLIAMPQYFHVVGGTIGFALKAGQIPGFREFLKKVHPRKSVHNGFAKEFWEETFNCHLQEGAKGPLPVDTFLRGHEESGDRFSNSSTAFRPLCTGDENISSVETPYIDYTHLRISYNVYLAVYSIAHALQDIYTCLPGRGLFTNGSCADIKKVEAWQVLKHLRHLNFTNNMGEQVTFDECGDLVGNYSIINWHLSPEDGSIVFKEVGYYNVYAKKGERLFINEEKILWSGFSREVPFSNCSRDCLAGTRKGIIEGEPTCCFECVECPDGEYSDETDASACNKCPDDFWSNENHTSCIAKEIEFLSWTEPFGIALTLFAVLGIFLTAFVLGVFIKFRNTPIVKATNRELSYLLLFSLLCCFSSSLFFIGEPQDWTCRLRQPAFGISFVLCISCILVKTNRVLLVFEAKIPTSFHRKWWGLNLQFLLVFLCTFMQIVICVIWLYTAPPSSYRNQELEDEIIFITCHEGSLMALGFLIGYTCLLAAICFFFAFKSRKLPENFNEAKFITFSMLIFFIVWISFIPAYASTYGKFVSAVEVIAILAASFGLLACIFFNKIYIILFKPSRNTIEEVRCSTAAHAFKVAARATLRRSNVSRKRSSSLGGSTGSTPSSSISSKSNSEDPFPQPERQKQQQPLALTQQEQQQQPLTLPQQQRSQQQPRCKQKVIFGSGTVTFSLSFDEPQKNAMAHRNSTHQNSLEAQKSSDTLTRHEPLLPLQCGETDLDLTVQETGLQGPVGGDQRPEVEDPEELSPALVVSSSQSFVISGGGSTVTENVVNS

CYP2D6 [2] = target: T2, CYP2D6 (Homo sapiens, UniProt P10635); assay: Inhibition of CYP2D6 in human liver microsomes at 1 uM preincubated for 5 mins followed by NADPH addition by LC-MS/MS analysis relative to control; assay type: ADME, Microsome
T2 sequence (P10635 whole entry): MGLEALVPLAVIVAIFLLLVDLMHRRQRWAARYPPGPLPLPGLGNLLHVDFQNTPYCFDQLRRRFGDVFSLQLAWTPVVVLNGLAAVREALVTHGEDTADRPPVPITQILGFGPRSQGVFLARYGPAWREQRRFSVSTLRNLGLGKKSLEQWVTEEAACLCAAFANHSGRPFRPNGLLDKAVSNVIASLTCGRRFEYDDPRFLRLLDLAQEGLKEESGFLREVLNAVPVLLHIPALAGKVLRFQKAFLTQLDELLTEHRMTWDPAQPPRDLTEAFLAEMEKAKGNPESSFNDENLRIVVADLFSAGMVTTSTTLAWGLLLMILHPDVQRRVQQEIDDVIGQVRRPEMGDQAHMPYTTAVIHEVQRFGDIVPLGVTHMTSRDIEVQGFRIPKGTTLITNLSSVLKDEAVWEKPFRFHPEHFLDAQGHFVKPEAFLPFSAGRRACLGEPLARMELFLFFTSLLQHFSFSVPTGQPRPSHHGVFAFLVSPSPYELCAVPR

CYP2D6 [3] = target: T2, CYP2D6; assay: Inhibition of CYP2D6 in human liver microsomes at 10 uM preincubated for 5 mins followed by NADPH addition by LC-MS/MS analysis relative to control; assay type: ADME, Microsome
hERG [4] = target: T3, hERG (Homo sapiens, UniProt Q12809); assay: Inhibition of hERG at 1 uM relative to control; assay type: toxicity
T3 sequence (Q12809 whole entry): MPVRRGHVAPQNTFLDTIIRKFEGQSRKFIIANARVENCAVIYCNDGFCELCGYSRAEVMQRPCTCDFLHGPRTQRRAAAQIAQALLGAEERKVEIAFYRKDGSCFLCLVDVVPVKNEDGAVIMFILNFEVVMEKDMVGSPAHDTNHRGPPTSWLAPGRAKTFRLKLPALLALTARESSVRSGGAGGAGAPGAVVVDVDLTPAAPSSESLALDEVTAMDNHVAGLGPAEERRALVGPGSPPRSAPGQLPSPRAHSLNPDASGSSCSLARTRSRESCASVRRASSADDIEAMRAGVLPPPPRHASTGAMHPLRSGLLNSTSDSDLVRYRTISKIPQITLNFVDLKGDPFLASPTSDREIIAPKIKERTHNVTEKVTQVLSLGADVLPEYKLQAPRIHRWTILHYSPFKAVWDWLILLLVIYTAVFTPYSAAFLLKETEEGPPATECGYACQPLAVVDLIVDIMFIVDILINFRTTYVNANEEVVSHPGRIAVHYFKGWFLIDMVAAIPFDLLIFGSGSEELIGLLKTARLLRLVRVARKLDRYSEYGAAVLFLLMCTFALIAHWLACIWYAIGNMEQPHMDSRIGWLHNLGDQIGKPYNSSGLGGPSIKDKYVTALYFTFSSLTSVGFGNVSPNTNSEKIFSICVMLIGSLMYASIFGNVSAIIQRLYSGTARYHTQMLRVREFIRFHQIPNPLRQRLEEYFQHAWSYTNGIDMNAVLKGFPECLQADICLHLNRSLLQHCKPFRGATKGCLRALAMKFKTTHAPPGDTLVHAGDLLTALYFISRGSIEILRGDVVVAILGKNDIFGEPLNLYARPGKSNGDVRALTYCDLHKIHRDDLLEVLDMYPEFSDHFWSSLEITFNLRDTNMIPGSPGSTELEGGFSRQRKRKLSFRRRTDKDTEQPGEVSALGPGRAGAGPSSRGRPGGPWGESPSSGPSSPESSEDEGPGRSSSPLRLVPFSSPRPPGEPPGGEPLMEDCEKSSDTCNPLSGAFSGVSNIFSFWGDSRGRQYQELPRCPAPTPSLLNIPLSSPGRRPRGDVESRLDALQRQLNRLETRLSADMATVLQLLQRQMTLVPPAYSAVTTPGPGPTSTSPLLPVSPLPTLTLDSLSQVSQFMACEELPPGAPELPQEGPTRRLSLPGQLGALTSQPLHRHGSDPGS

hERG [5] = target: T3, hERG; assay: Inhibition of hERG at 10 uM relative to control; assay type: toxicity
[6] = Microsomal stability in rat liver microsomes assessed as parent compound remaining at 1 uM measured upto 30 mins in presence of NADPH by LC-MS/MS analysis; assay type: ADME, Microsome; settings: read-out: Stability
[7] = Microsomal stability in human liver microsomes assessed as parent compound remaining at 1 uM measured upto 30 mins in presence of NADPH by LC-MS/MS analysis; assay type: ADME, Microsome; settings: liver microsomes, read-out: Stability
Rattus norvegicus = assay: Effect on parathyroid hormone in po dosed overnight fasted Sprague-Dawley rat assessed as reduction in plasma PTH level measured after 0.5 to 6 hrs of post treatment by sandwich ELISA analysis; assay type: functional, organism-based; settings: dose 3-30 mg/kg, time 0.5-6 hrs

pEC50 [1]	inhibition at 1 µM (CYP2D6 [2]) [%]	inhibition at 10 µM (CYP2D6 [3]) [%]	remaining at 0.5 h, 1 µM [6] [%]	remaining at 0.5 h, 1 µM [7] [%]	EC50 [1]	Compound	inhibition at 1 µM (hERG [4]) [%]	inhibition at 10 µM (hERG [5]) [%]	Activity (Rattus norvegicus)
6.77	–	–	–	–	–	Cc1cc(C(=O)O)cc(N2CC(CN[C@H](C)c3cccc4ccccc34)Oc3ccccc32)c1 (mixture of isomers; form 2)	–	–	–
6.94	–	–	–	–	–	C[C@@H](NCC1CN(c2ccccc2)c2ccccc2O1)c1cccc2ccccc12 (mixture of isomers; form 2)	–	–	–
8.43	7	32	62	74	–	Cc1ccc([C@H]2C[C@@H](CN[C@H](C)c3cccc4ccccc34)Oc3ccccc32)cc1C(=O)O	9	1	–
6.98	–	–	–	–	–	C[C@@H](NCC1CN(c2cccc(CC(=O)O)c2)c2ccccc2O1)c1cccc2ccccc12 (stereo partly specified)	–	–	–
–	0	0	88	77	–	COc1ccc([C@@H]2C[C@H](CN[C@H](C)c3cccc4ccccc34)Oc3ccccc32)cc1C(=O)O	-3	-4	–
< 7.05	–	–	–	–	–	COc1ccc(N2CC(CN[C@H](C)c3cccc4ccccc34)Oc3ccccc32)cc1C(=O)O (mixture of isomers; form 2)	–	–	–
–	17	35	31	42	–	C[C@@H](NC[C@H]1C[C@@H](c2cccc(C(=O)O)c2)c2ccccc2O1)c1cccc2ccccc12	–	–	–
< 6.52	–	–	–	–	–	COc1ccc(N2CC(CN[C@H](C)c3cccc4ccccc34)Oc3ccccc32)cc1C(=O)O (mixture of isomers; form 1)	–	–	–
–	7	36	52	80	–	Cc1ccc(C(=O)O)cc1[C@@H]1C[C@H](CN[C@H](C)c2cccc3ccccc23)Oc2ccccc21	5	2	–
–	78	82	5	10	–	C[C@@H](NCC1CN(CC(F)(F)F)c2ccccc2O1)c1cccc2ccccc12 (stereo partly specified)	–	–	–
–	8	24	31	57	–	C[C@@H](NC[C@H]1C[C@H](c2cccc(C(=O)O)c2)c2ccccc2O1)c1cccc2ccccc12	–	–	–
7.19	65	65	28	34	–	C[C@@H](NCC1CN(c2ccc(C(=O)O)cc2)c2ccccc2O1)c1cccc2ccccc12 (stereo partly specified)	5	-43	–
–	–	–	61	6	–	C[C@@H](NCC1CN(c2ccc(F)c(C(=O)O)c2)c2ccccc2O1)c1cccc2ccccc12 (mixture of isomers; form 1)	5	21	–
–	–	–	–	–	–	Cc1ccc(N2CC(CN[C@H](C)c3cccc4ccccc34)Oc3ccccc32)cc1C(=O)O (stereo partly specified)	–	–	Dose-Dependent Effect
–	85	87	5	2	–	C[C@@H](NCC1CN(c2ccccn2)c2ccccc2O1)c1cccc2ccccc12 (stereo partly specified)	–	–	–
7.15	–	–	–	–	–	Cc1ccc(N2CC(CN[C@H](C)c3cccc4ccccc34)Oc3ccccc32)cc1C(=O)O (mixture of isomers)	–	–	–

pEC50 [1]	inhibition at 1 µM (CYP2D6 [2]) [%]	inhibition at 10 µM (CYP2D6 [3]) [%]	remaining at 0.5 h, 1 µM [6] [%]	remaining at 0.5 h, 1 µM [7] [%]	EC50 [1]	Compound	inhibition at 1 µM (hERG [4]) [%]	inhibition at 10 µM (hERG [5]) [%]	Activity (Rattus norvegicus)
7.08	–	–	–	–	–	Cc1cc(C(=O)O)cc(N2CC(CN[C@H](C)c3cccc4ccccc34)Oc3ccccc32)c1 (mixture of isomers; form 1)	–	–	–
–	7	25	52	47	–	Cc1c(C(=O)O)cccc1[C@@H]1C[C@H](CN[C@H](C)c2cccc3ccccc23)Oc2ccccc21	–	–	–
7.23	–	–	–	–	–	Cc1ccc([C@H]2C[C@H](CN[C@H](C)c3cccc4ccccc34)Oc3ccccc32)cc1C(=O)O	–	–	–
6.84	–	–	–	–	–	C[C@@H](NCC1CN(c2cccc(C(=O)O)c2)c2ccccc2O1)c1cccc2ccccc12 (mixture of isomers; form 2)	–	–	–
8.08	0	33	25	80	–	Cc1cc(C(=O)O)cc([C@@H]2C[C@H](CN[C@H](C)c3cccc4ccccc34)Oc3ccccc32)c1	0	6	–
–	5	25	40	94	–	C[C@@H](NC[C@H]1C[C@@H](c2ccc(F)c(C(=O)O)c2)c2ccccc2O1)c1cccc2ccccc12	–	–	–
–	–	–	–	–	Not Active	C[C@@H](NCC1CN(c2ccccc2C(=O)O)c2ccccc2O1)c1cccc2ccccc12.Cl (mixture of isomers)	–	–	–
7.48	27	41	36	49	–	C[C@@H](NCC1CN(c2cccc(C(=O)O)c2)c2ccccc2O1)c1cccc2ccccc12 (mixture of isomers; form 1)	-1	-8	–
–	94	94	0	18	–	C[C@@H](NCC1CNc2ccccc2O1)c1cccc2ccccc12 (stereo partly specified)	19	97	–
7.44	6	36	87	45	–	C[C@@H](NCC1CN(c2cccc(OCC(=O)O)c2)c2ccccc2O1)c1cccc2ccccc12 (stereo partly specified)	43	66	–
–	92	93	0	5	–	C[C@@H](NCC1CN(C)c2ccccc2O1)c1cccc2ccccc12 (stereo partly specified)	13	42	–
7.15	–	–	–	–	Not Active	C[C@@H](NCC1CN(c2cccc(CCC(=O)O)c2)c2ccccc2O1)c1cccc2ccccc12.Cl (mixture of isomers)	–	–	–
7.68	7	72	0	3	–	C[C@@H](NCC1CN(C(=O)c2ccccc2)c2ccccc2O1)c1cccc2ccccc12 (mixture of isomers; form 1)	16	52	–
7.47	8	41	47	74	–	Cc1ccc([C@@H]2C[C@@H](CN[C@H](C)c3cccc4ccccc34)Oc3ccccc32)cc1C(=O)O	4	-1	–
7.27	87	–	3	1	–	C[C@@H](NCC1CN(c2ccccc2)c2ccccc2O1)c1cccc2ccccc12 (mixture of isomers; form 1)	14	26	–
7.05	–	–	–	–	–	C[C@@H](NCC1CN(C(=O)c2ccccc2)c2ccccc2O1)c1cccc2ccccc12 (mixture of isomers; form 2)	–	–	–
